Measurements published in patent publication US20100035932A1, “NOVEL FORMYL PEPTIDE RECEPTOR LIKE 1 AGONISTS THAT INDUCE MACROPHAGE TUMOR NECROSIS FACTOR ALPHA AND COMPUTATIONAL STRUCTURE-ACTIVITY RELATIONSHIP ANALYSIS OF THEREOF” (priority 2008, published 2010).
pEC50: −log10 of the molar value. Where two headings read alike, the source gives them in different places.

How the values were obtained:
[1] = tested on: J774.A1 macrophages; experiment: TNF-α production in J774.A1 macrophages (ELISA); assay type: cell-based, murine; settings: for Determined class of macrophage TNF-α inducing activity: experimentally determined class; for fold induction at 50 µM: Mus musculus, J774.A1, 24 h
[2] = tested on: human neutrophils; experiment: Ca2+ mobilization in human neutrophils (FLIPR Calcium 3); settings: Neutrophil, read-out: [Ca2+]i EC50
[3] = relative fold of activation compared to vehicle (DMSO) control for 50 μM compound, N.A. = no activity was observed, read-out: TNF-α production
[4] = 50 μM compound, above response to vehicle (DMSO) control, Table 5 numbering, N.A. = inactive, read-out: FI (fold-increase of macrophage TNF-α production)

For “4-fluoro-benzoic acid [5-(3-trifluoromethyl-phenyl)-2-furyl]methylene-hydrazide [Compound 2]”, the “FI (fold-increase of macrophage TNF-α production)” value ([1]; 50 μM compound, above response to vehicle (DMSO) control, Table 5 numbering, N.A. = inactive) was 60 fold-increase and the “Determined class of macrophage TNF-α inducing activity” value (“Determined class” for short) [1] was “Active”.
In the case of `CCOc1cc(/C=N\NC(=O)c2ccc3c(c2)OCO3)ccc1OC(=O)c1ccc(Br)cc1` [Compound 11], the fold induction at 50 µM [1, 3] was under 5.
`O=C(N/N=C/c1cc(Br)cc(Br)c1OC(=O)c1ccccc1)c1ccc2c(c1)OCO2` [Compound 12] gave a fold induction at 50 µM [1, 3] of under 5.
`O=C(N/N=C/c1ccc(-c2cccc(C(F)(F)F)c2)o1)c1cccc([N+](=O)[O-])c1` [Compound 13] showed a fold induction at 50 µM [1, 3] of under 5.
In the case of `O=C(N/N=C/c1ccc(-c2ccccc2Cl)o1)c1ccc(Cl)cc1Cl` [Compound 14], the fold induction at 50 µM [1, 3] was under 5.
With `O=C(N/N=C/c1ccc(-c2cccc(C(F)(F)F)c2)o1)c1cc(I)ccc1Cl` [Compound 15] the fold induction at 50 µM [1, 3] was under 5.
`O=C(N/N=C/c1cc(Br)c(Br)o1)c1ccc2c(c1)OCO2` [Compound 16] gave a fold induction at 50 µM [1, 3] of under 5.
With `Nc1ccc(C(=O)N/N=C/c2ccc(-c3ccc([N+](=O)[O-])cc3Cl)o2)cc1` [Compound 22] the fold induction at 50 µM [1, 3] was under 2.
`O=C(N/N=C/c1ccc([N+](=O)[O-])o1)c1cccc([N+](=O)[O-])c1` [Compound 23] gave a fold induction at 50 µM ([1]; read-out: TNF-α production) of under 2.
Molecule `O=C(N/N=C/c1ccc(-c2ccc(Cl)cc2Cl)o1)c1ccc2c(c1)OCO2` [Compound 24] has a fold induction at 50 µM [1, 3] of under 2.
`COc1cc(/C=N\NC(=O)c2cccc(C)c2O)ccc1OCc1ccccc1` [Compound 25] was tested, and the pEC50 [2] was 6.13.
Molecule `COc1ccc(C(=O)N/N=C\c2ccc(N(C)C)cc2)cc1` [Compound 26] has a pEC50 [2] of 5.52.
Work on `O=C(N/N=C/c1cc(Br)cc(I)c1O)c1ccc2c(c1)OCCO2` [Compound 27] yielded a pEC50 [2] of 5.10.
With `O=C(N/N=C/c1cc(/N=N\c2cccc(C(F)(F)F)c2)ccc1O)c1ccc2c(c1)OCO2` [Compound 28] the pEC50 [2] was 5.07.
Work on `O=C(N/N=C1\C(=O)N(Cc2cccc3ccccc23)c2ccccc21)c1ccc2c(c1)OCO2` [Compound 29] yielded a pEC50 [2] of 5.03.
For `O=C(N/N=C/c1cc(Br)c(Br)o1)c1ccc2c(c1)OCCO2` [Compound 30], the pEC50 [2] was 5.01.
For `O=C(/C=C/c1ccco1)Oc1cccc(/C=N/NC(=O)c2ccc3c(c2)OCO3)c1` [Compound 31], the pEC50 [2] was 4.91.
For `O=C(N/N=C/c1ccc(-c2ccc(O)c(C(=O)O)c2)o1)c1cccnc1` [Compound 32], the pEC50 [2] was 4.90.
`CN(C)c1ccc(/C=N\NC(=O)c2cccc(F)c2)cc1` [Compound 33] was tested, and the pEC50 [2] was 4.88.
With `CN(C)c1ccc(/C=N/NC(=O)c2ccc3c(c2)OCO3)cc1` [Compound 34] the pEC50 [2] was 4.75.
In the case of `Cc1ccc(-c2ccc(/C=N/NC(=O)c3ccncc3)o2)cc1Cl` [Compound 51], the fold induction at 50 µM [1, 4] was 50 and the “Determined class” value [1] was “Active”.
In the case of `O=C(N/N=C/c1ccc(-c2cccc(C(F)(F)F)c2)o1)c1ccc(Br)cc1` [Compound 52], the fold induction at 50 µM [1, 4] was 35 and the “Determined class” value [1] was “Active”.
With `CN(C)c1ccc(/C=N\NC(=O)c2ccc([N+](=O)[O-])cc2)cc1` [Compound 53] the fold induction at 50 µM [1, 4] was 25 and the “Determined class” value [1] was “Active”.
`COc1cc(/C=N\NC(=O)c2ccc3c(c2)OCO3)ccc1OCc1ccccc1` [Compound 54] was tested, and the fold induction at 50 µM [1, 4] was 7 and the “Determined class” value [1] was “Active”.
In the case of `O=C(N/N=C/c1ccc(-c2ccc(Cl)c(Cl)c2)o1)c1ccc2c(c1)OCO2` [Compound 55], the fold induction at 50 µM [1, 4] was under 5 and the “Determined class” value [1] was “Active”.
For `CCOc1cc(/C=N\NC(=O)c2ccc3c(c2)OCO3)ccc1OC(=O)c1ccc(Br)cc1` [Compound 56], the fold induction at 50 µM [1, 4] was under 5 and the “Determined class” value [1] was “Active”.
`COc1ccc(-c2ccc(/C=N/NC(=O)c3ccc([N+](=O)[O-])cc3)o2)cc1Cl` [Compound 57] was tested, and the fold induction at 50 µM [1, 4] was under 5 and the “Determined class” value [1] was “Active”.
For `O=C(N/N=C/c1cc(Br)c(Br)o1)c1ccc2c(c1)OCO2` [Compound 58], the fold induction at 50 µM [1, 4] was under 5 and the “Determined class” value [1] was “Active”.
`O=C(/C=C/c1ccco1)Oc1cccc(/C=N/NC(=O)c2ccc3c(c2)OCO3)c1` [Compound 59] was tested, and the “Determined class” value [1] was “NA (inactive derivatives were placed in the nonactive group labeled “NA”)”.
`COc1cc(/C=N\NC(=O)c2cccc(C)c2O)ccc1OCc1ccccc1` [Compound 60] was tested, and the “Determined class” value [1] was “NA (inactive derivatives were placed in the nonactive group labeled “NA”)”.
In the case of `COc1ccc(C(=O)N/N=C\c2ccc(N(C)C)cc2)cc1` [Compound 61], the “Determined class” value [1] was “NA (inactive derivatives were placed in the nonactive group labeled “NA”)”.
With `O=C(N/N=C/c1cc(Br)cc(I)c1O)c1ccc2c(c1)OCCO2` [Compound 62] the “Determined class” value [1] was “NA (inactive derivatives were placed in the nonactive group labeled “NA”)”.
`O=C(N/N=C/c1cc(/N=N\c2cccc(C(F)(F)F)c2)ccc1O)c1ccc2c(c1)OCO2` [Compound 63] was tested, and the “Determined class” value [1] was “NA (inactive derivatives were placed in the nonactive group labeled “NA”)”.
`O=C(N/N=C1\C(=O)N(Cc2cccc3ccccc23)c2ccccc21)c1ccc2c(c1)OCO2` [Compound 64] was tested, and the “Determined class” value [1] was “NA (inactive derivatives were placed in the nonactive group labeled “NA”)”.
With `O=C(N/N=C/c1cc(Br)c(Br)o1)c1ccc2c(c1)OCCO2` [Compound 65] the “Determined class” value [1] was “NA (inactive derivatives were placed in the nonactive group labeled “NA”)”.
In the case of `CN(C)c1ccc(/C=N\NC(=O)c2cccc(F)c2)cc1` [Compound 66], the “Determined class” value [1] was “NA (inactive derivatives were placed in the nonactive group labeled “NA”)”.
`CN(C)c1ccc(/C=N/NC(=O)c2ccc3c(c2)OCO3)cc1` [Compound 67] was tested, and the “Determined class” value [1] was “NA (inactive derivatives were placed in the nonactive group labeled “NA”)”.
With `O=C(N/N=C/c1c(O)ccc2ccccc12)c1ccc2c(c1)OCO2` [Compound 68] the “Determined class” value [1] was “NA (inactive derivatives were placed in the nonactive group labeled “NA”)”.
For `COc1ccc(/C=N/NC(=O)c2ccc3c(c2)OCO3)c(OC)c1` [Compound 69], the “Determined class” value [1] was “NA (inactive derivatives were placed in the nonactive group labeled “NA”)”.
With `COc1cc(/C=N\NC(=O)c2ccc3c(c2)OCO3)ccc1OC(=O)c1ccco1` [Compound 70] the “Determined class” value [1] was “NA (inactive derivatives were placed in the nonactive group labeled “NA”)”.
For `O=C(/C=C\c1ccco1)Oc1ccc(/C=N\NC(=O)c2ccc3c(c2)OCO3)cc1` [Compound 71], the “Determined class” value [1] was “NA (inactive derivatives were placed in the nonactive group labeled “NA”)”.
For `O=C(O)COc1ccccc1/C=N/NC(=O)c1ccc2c(c1)OCO2` [Compound 72], the “Determined class” value [1] was “NA (inactive derivatives were placed in the nonactive group labeled “NA”)”.
For `CN(C)c1ccc(/C=N\NC(=O)c2ccccc2O)cc1` [Compound 73], the “Determined class” value [1] was “NA (inactive derivatives were placed in the nonactive group labeled “NA”)”.
In the case of `O=C(N/N=C/c1cc(/N=N\c2cccc3ccccc23)ccc1O)c1ccc2c(c1)OCO2` [Compound 74], the “Determined class” value [1] was “NA (inactive derivatives were placed in the nonactive group labeled “NA”)”.
For `C/C(=N\NC(=O)c1ccc2c(c1)OCO2)c1cccc([N+](=O)[O-])c1` [Compound 75], the “Determined class” value [1] was “NA (inactive derivatives were placed in the nonactive group labeled “NA”)”.
With `CC(C)N1C(=O)/C(=N\NC(=O)c2ccc3c(c2)OCO3)c2ccccc21` [Compound 76] the “Determined class” value [1] was “NA (inactive derivatives were placed in the nonactive group labeled “NA”)”.
With `CCN1C(=O)/C(=N\NC(=O)c2ccc3c(c2)OCO3)c2ccccc21` [Compound 77] the “Determined class” value [1] was “NA (inactive derivatives were placed in the nonactive group labeled “NA”)”.
`COc1ccc(/C(C)=N/NC(=O)c2ccc3c(c2)OCCO3)cc1[N+](=O)[O-]` [Compound 78] was tested, and the “Determined class” value [1] was “NA (inactive derivatives were placed in the nonactive group labeled “NA”)”.
`COc1ccc(Cl)cc1/C=N/NC(=O)c1ccc2c(c1)OCCO2` [Compound 79] was tested, and the “Determined class” value [1] was “NA (inactive derivatives were placed in the nonactive group labeled “NA”)”.
With `CCOc1ncccc1C(=O)N/N=C/c1ccc([N+](=O)[O-])o1` [Compound 80] the “Determined class” value [1] was “NA (inactive derivatives were placed in the nonactive group labeled “NA”)”.
With `O=C(N/N=C/c1ccco1)c1cccnc1` [Compound 81] the “Determined class” value [1] was “NA (inactive derivatives were placed in the nonactive group labeled “NA”)”.
In the case of `O=C(N/N=C/c1ccc(-c2ccc(Cl)c([N+](=O)[O-])c2)o1)c1ccc2c(c1)OCO2` [Compound 82], the “Determined class” value [1] was “NA (inactive derivatives were placed in the nonactive group labeled “NA”)”.
In the case of `O=C(N/N=C/c1ccc(-c2ccc(Cl)cc2)o1)c1ccncc1` [Compound 83], the “Determined class” value [1] was “NA (inactive derivatives were placed in the nonactive group labeled “NA”)”.
With `O=C(N/N=C/c1ccc(-c2ccc(Cl)c(Cl)c2)o1)c1ccncc1` [Compound 84] the “Determined class” value [1] was “NA (inactive derivatives were placed in the nonactive group labeled “NA”)”.
For `CCc1ccc(C(=O)N/N=C/c2ccc(-c3ccc(C)c(Cl)c3)o2)nc1` [Compound 85], the “Determined class” value [1] was “NA (inactive derivatives were placed in the nonactive group labeled “NA”)”.
`O=C(N/N=C/c1ccc(-c2cccc(Br)c2)o1)c1ccccn1` [Compound 86] was tested, and the “Determined class” value [1] was “NA (inactive derivatives were placed in the nonactive group labeled “NA”)”.
With `CSCC[C@H](NC=O)C(=O)N[C@@H](CC(C)C)C(=O)N[C@@H](Cc1ccccc1)C(=O)O` [fMLF, N-formyl-Met-Leu-Phe, reference compound] the “TNF-α production by peptide agonists” value ([1]; 50 μM, 24 hr) was “failed to induce macrophage TNF-α production”.
